From patent US12371434B2, “MLL1 inhibitors and anti-cancer agents” (NOVARTIS AG, priority 2020, dated 2025) come the findings set out here.

Molecules are shown by their SMILES.

In assay [1] the target is wild type MLL1 four-member complex (MLL1-4C) (Homo sapiens, UniProt Q03164). As to the kind of experiment: MLL1 LC-MS assay. The conditions noted are these: 30 nM MLL1-4C, 2.5 μM SAM, 10 μM H3K4me0; SAH production by LC-MS/MS; read-out: MLL1 LCMS. It counts as biochemical. The method, then:
The compounds of the present disclosure were serially and separately diluted 3-fold in DMSO to obtain a total of eight or twelve concentrations. Then the test compounds at each concentration (120 nL of each) were transferred by Mosquito into white Proxiplate plus 384-well microplate (PerkinElmer). Solutions (6 μL) of 60 nM wild type MLL1 four-member complex (MLL1-4C) and 5 μM SAM in the reaction buffer (20 mM Tris-HCl, pH8.0, 0.01% Tween 20, 1 mM DTT, 10 mM MgCl2, 0.01% BSA) were added to the wells that were then incubated with the test compound for 20 min. A 6 μL solution of 20 μM of the peptide substrate H3K4me0 (histone H3[1-21]-Biotin) in the reaction buffer was added to initiate each reaction. The final components in the reaction solution include 30 nM MLL1-4C, 2.5 μM SAM, and 10 μM H3K4me0 with varying concentration of the compounds. A positive control consisted of 30 nM MLL1-4C, 2.5 μM SAM, and 10 μM substrate in the absence of the test compound, and a negative control consisted of 2.5 μM SAM, and 10 μM substrate only. Each reaction was incubated at rt for 120 min, then stopped by addition of 3 μL per of quench solution (2.5% TFA with 320 nM d4-SAH). The reaction mixture was centrifuged (Eppendorf centrifuge 5810, Rotor A-4-62) for 2 min at 2000 rmp. The SAH production from the enzymatic assays were monitored by LC-MS/MS on an API 4000 triple quadrupole mass spec with TurboIon Spray (Applied Biosystem) coupled with Prominenece UFLC(Shimazu). The level of SAH production were then normalized based on the values coming from the positive and negative controls to give percent enzyme activities. The data were then fit to a dose response equation using the program Helios (Novartis) to get the IC50 values of the test compounds.

Assay [2] concerns the target wild type MLL1 five-member complex (MLL1-5C) (Homo sapiens, UniProt Q03164). As to the kind of experiment: MLL1 Flashplate assay. The conditions noted are these: 2.5 nM MLL1-5C, 0.5 μM 3H-SAM, 1 μM H3K4me0; read-out: MLL1 flash plate. It counts as biochemical. On the procedure:
MLL1 Flashplate Assay To assess the compound potency in MLL1 Flashplate assay, compounds were serially diluted 3-fold in DMSO to obtain a total of twelve concentrations. Then the test compounds at each concentration (250 nL of each) were transferred by Mosquito into Corning #3675 384-well plate. Solutions (15 μL) of 4.2 nM wild type MLL1 five-member complex (MLL1-5C) in the assay buffer (20 mM Tris-HCl, pH8.0, 0.01% Tween 20, 1 mM DTT, 0.01% BSA) were added to the wells. A 10 μL solution of 2.5 μM of the peptide substrate H3K4me0 (histone H3[1-21]-Biotin) and 1.25 μM ^3H-SAM in the reaction buffer was then added to initiate each reaction. The final components in the reaction solution include 2.5 nM MLL1-5C, 0.5 μM ^3H-SAM, and 1 μM H3K4me0 with varying concentration of the compounds. A positive control consisted of 2.5 nM MLL1-5C, 0.5 μM ^3H-SAM, and 1 μM substrate in the absence of the test compound, and a negative control consisted of 0.5 μM ^3H-SAM, and 1 μM substrate only. Each reaction was incubated at rt for 90 min, then stopped by addition of 5 μL per of quench solution (0.5 mM SAM in assay buffer). 25 μL of each reaction solution was transferred to FlashPlate streptavidin 384-well microplate (PerkinElmer). After at least 1 h incubation at rt, the wells were washed three times with 0.1% Tween-20 in dH2O using the BioTek plate washer. The plates were then read in MicroBeta (PerkinElmer). The radioactive readouts were then normalized based on the values coming from the positive and negative controls to give percent enzyme activities. The data were then fit to a dose response equation using the program Helios to get the IC50 values of the test compounds.

The test system of another assay is H3K4me3 in MV4-11 cells. As to the kind of experiment: MV4-11 H3K4Me3 cellular ELISA assay. Format: cell-based. The conditions noted are these: Homo sapiens, 48 hours, H3K4me3 signal normalized to total H3. On the procedure: MV4-11H3K4Me3 Cellular ELISA Assay
MV4-11 (ATCC® CRL-9591™) was cultured with RPMI1640 medium (Thermo Fisher Scientific, cat #11875) supplemented with 10% FBS (Thermo Fisher Scientific, cat #10099141) and 50 U/ml Penicillin-Streptomycin (Thermo Fisher Scientific, cat #10378016) in humidified incubator at 37° C., 5% CO2.
200 nL compounds dissolved in DMSO were serially diluted at 1:3 ratio for 12 points starting from 10 mM and dispensed into each wells of cell culture plates (PDL-coated ViewPlate-384 Black, FTC, PerkinElmer, #6007710). 3,750 MV4-11 cells in 40 μL culture medium were seeded into each well and treated with desired concentration for 48 hours. After treatment, wash cells with cold phosphate based buffer (PBS, pH 7.4) and aspirate the remaining PBS buffer. Crude histone lysate was extracted by 40 μL 0.5M HCl for 1 hour in 4° C. following neutralization by adding 32 μL neutralization buffer (0.5M Sodium phosphate dibasic, pH˜12.5, 1.25 mM Dithiothreitol, Promega #V3151, Protease Inhibitor Cocktail, Sigma #8340) for each well. 5 μL and 20 μL of histone lysate was loaded to ELISA plate (384 Well Plates, PE HB, White, 6005620) for detection of total H3 and H3K4me3, respectively. Shake the plates gently in 4° C. for overnight. After histone binding, plates were washed with 80 μL PBS/T (PBS with 0.05% Tween-20) and blocked with 50 μL 3% BSA diluted in PBS/T per well for 1 hour. Incubate wells with primary antibody for 1 hour at room temperature using anti-H3K4me3 (CST #9727) and anti-total H3 (CST #9715) diluted 1:2000 in 3% BSA. Plates were then washed with PBS/T for 3 times and incubated with horseradish peroxidase (HRP) conjugated secondary antibody (CST #7074, 1:5000) for 1 hour at room temperature. The abundance of H3K4me3 and total H3 were measured by ECL substrates chemiluminesce (Pierce, #34080) on a plate reader (PerkinElmer EnVison 2104 Mutilable Reader). Percentage inhibition was calculated against DMSO control after normalization of H3K4me3 signal to H3 signal for individual samples. The data were then fit to a dose response curve using GraphPad Prism for IC50 calculation.
(An ELISA detects its analyte on a solid surface through an enzyme-linked reagent.)

A further assay concerns MV4-11 cells. As to the kind of experiment: MV4-11 6-day cell growth CTG (CellTiter-Glo) assay. The conditions noted are these: Homo sapiens, 144 h, 6 days. It counts as cell-based. On the procedure: MV4-11 6-Day Cell Growth CTG (CellTiter-Glo) Assay
Acute myeloid leukemia cell MV4-11 (ATCC® CRL-9591™) was cultured with RPMI 1640 medium (Thermo Fisher Scientific, cat #11875) supplemented with 10% FBS (Thermo Fisher Scientific, cat #10099141) in humidified incubator at 37° C., 5% CO2. To assess the effect of MLL1 inhibition on cell growth, the compound of the present invention was dissolved in DMSO and serially diluted at 1:3 for 12 points starting from 10 mM then 200 nL for the replicate of each dose per well was dispensed to Viewplate-384 Black (Perkin Elmer). Exponentially growing MV4-11 cells were seeded at the density of 300 cells per well in 40 μL to the plate, so the final compound working concentration starts from 50 μM. After 6 days, 40 μL CellTiter-Glo (Promega, cat #G7573) was added into the cell culture well and luminescence was read with Envision (Perkin Elmer) to determine the viable cells. The percentage inhibition was calculated against the samples treated with DMSO only and the data were used for dose response curve fitting in GraphPad Prism to get the IC50 of representative compound of present invention, which reflects the inhibition of MLL1 activity.

In the case of `COC[C@H](N)CCOc1cc(Cl)cc(Br)c1Cn1cnc2c(N)ncnc21` [Example 2, (R)-9-(2-(3-amino-4-methoxybutoxy)-6-bromo-4-chlorobenzyl)-9H-purin-6-amine], the IC50 in assay [1] and in assay [2] was more than 100 nM in each case.

`COC[C@H](N)CCCOc1ccc(Cl)c(Cl)c1Cc1cnc2c(N)ncnn12` [Example 5, (R)-7-(6-((4-amino-5-methoxypentyl)oxy)-2,3-dichlorobenzyl)imidazo[2,1-f][1,2,4]triazin-4-amine]: the IC50 in the assay on H3K4me3 in MV4-11 cells is more than 3000 nM; in assay [1], more than 100 nM; in assay [2], more than 100 nM.

Take `COC[C@H](N)CCCOc1ccc(Cl)c(Cl)c1Cc1cnn2c(N)ncnc12` [Example 8, (R)-8-(6-((4-amino-5-methoxypentyl)oxy)-2,3-dichlorobenzyl)pyrazolo[1,5-a][1,3,5]triazin-4-amine]: the IC50 with H3K4me3 in MV4-11 cells is more than 3000 nM; in assay [1], more than 100 nM; in assay [2], more than 100 nM.

As to `CC(C)COC[C@H](N)CCCOc1ccc(Cl)c(Cl)c1Cc1cnn2c(N)ncnc12` [Example 15, (R)-8-(6-((4-amino-5-isobutoxypentyl)oxy)-2,3-dichlorobenzyl)pyrazolo[1,5-a][1,3,5]triazin-4-amine], the IC50 in assay [1] and in assay [2] was more than 100 nM throughout.

On to `CCOC[C@H](N)CCCOc1ccc(Cl)c(Cl)c1Cc1cnn2c(N)ncnc12` [Example 16, (R)-8-(6-((4-amino-5-ethoxypentyl)oxy)-2,3-dichlorobenzyl)pyrazolo[1,5-a][1,3,5]triazin-4-amine], for which the IC50 is more than 3000 nM with H3K4me3 in MV4-11 cells, more than 100 nM in assay [1] and more than 100 nM in assay [2].

Consider `COC[C@@H](N)CCOc1ccc(Cl)c(Cl)c1Cc1cnn2c(N)ncnc12` [Example 17, (S)-8-(6-(3-amino-4-methoxybutoxy)-2,3-dichlorobenzyl)pyrazolo[1,5-a][1,3,5]triazin-4-amine], for which the IC50 in assay [1] and in assay [2] was more than 100 nM throughout.

Consider `COC[C@H](N)CCCOc1cc2ccccc2cc1Cn1cnc2c(N)ncnc21` [Example 21, (R)-9-((3-((4-amino-5-methoxypentyl)oxy)naphthalen-2-yl)methyl)-9H-purin-6-amine], for which the IC50 with H3K4me3 in MV4-11 cells is more than 3000 nM; in assay [1] it was 50 to 100 nM; in assay [2], more than 100 nM.

Turning to `CN[C@H](CCCOc1cc(Cl)cc(Br)c1Cn1cnc2c(N)ncnc21)COC` [Example 22, (R)-9-(2-bromo-4-chloro-6-((5-methoxy-4-(methylamino)pentyl)oxy)benzyl)-9H-purin-6-amine], the IC50 in assay [1] and in assay [2] was more than 100 nM each time.

With `COc1nc(N)c2ncn(Cc3c(Cl)cc(Cl)cc3OCCC[C@@H](N)C(=O)O)c2n1` [Example 27, (R)-2-amino-5-(2-((6-amino-2-methoxy-9H-purin-9-yl)methyl)-3,5-dichlorophenoxy)pentanoic acid], the values for the IC50 (in the assay with MV4-11 cells; in assay [1]) were more than 3000 nM and 50 to 100 nM, respectively.

As for `COC(=O)C(N)CCCOc1cc(Cl)cc(Cl)c1Cn1cnc2c(N)ncc(Cl)c21` (centres unmarked) [Example 31, Methyl 2-amino-5-(2-((4-amino-7-chloro-1H-imidazo[4,5-c]pyridin-1-yl)methyl)-3,5-dichlorophenoxy)pentanoate], the figures for the IC50 (with MV4-11 cells; in assay [1]) were less than 2000 nM and less than 50 nM, respectively.

Regarding `CCOC(=O)[C@H](N)CCCOc1cc(Cl)cc(Cl)c1Cn1cnc2c(N)ncnc21` [Example 32, ethyl (R)-2-amino-5-(2-((6-amino-9H-purin-9-yl)methyl)-3,5-dichlorophenoxy)pentanoate], the IC50 with MV4-11 cells was less than 2000 nM; in assay [1] it was 50 to 100 nM.

As to `Nc1ncnn2c(Cc3c(OCCC[C@@H](N)C(=O)NC4CC4)ccc(Cl)c3Cl)cnc12` [Example 36, (R)-2-amino-5-(2-((4-aminoimidazo[2,1-f][1,2,4]triazin-7-yl)methyl)-3,4-dichlorophenoxy)-N-cyclopropylpentanamide], the IC50 in the assay with H3K4me3 in MV4-11 cells is more than 3000 nM; in assay [1], less than 50 nM; in assay [2], less than 60 nM.

For `Nc1ncnc2c(Cc3c(OCCC[C@@H](N)C(=O)NC4CC4)ccc(Cl)c3Cl)cnn12` [Example 37, (R)-2-amino-5-(2-((4-aminopyrazolo[1,5-a][1,3,5]triazin-8-yl)methyl)-3,4-dichlorophenoxy)-N-cyclopropylpentanamide], the IC50 is more than 3000 nM in the assay on H3K4me3 in MV4-11 cells, 50 to 100 nM in assay [1] and more than 100 nM in assay [2].

On to `Nc1ncnc2c(Cc3c(OCCC[C@@H](N)CO)ccc(Cl)c3Cl)cnn12` [Example 44, (R)-2-amino-5-(2-((4-aminopyrazolo[1,5-a][1,3,5]triazin-8-yl)methyl)-3,4-dichlorophenoxy)pentan-1-ol], for which the IC50 with H3K4me3 in MV4-11 cells was more than 3000 nM; in assay [1] it was more than 100 nM; in assay [2] it was more than 100 nM.
